Test results reported in patent US20230174464A1, “MYRISTOYL DERIVATIVES OF 9-AMINO-DOXYCYCLINE FOR TARGETING CANCER STEM CELLS AND PREVENTING METASTASIS” (LUNELLA BIOTECH, INC., priority 2020, published 2023).
pIC50: −log10 of the molar value. Read-outs that look alike come from different tables or passages of the source.

How the values were obtained:
[1] = system: MCF7 cells; experiment: Cell viability (SRB) assay, MCF7 2D-monolayers; format: cell-based, human; details: 3 days, 5 to 20 μM
Procedure: (§1) Cell Viability Assay: The Sulphorhodamine (SRB) assay is based on the measurement of cellular protein content. After treatment for 72 h in 96-well plates, (8,000 cells/well), cells were fixed with 10% trichloroacetic acid (TCA) for 1 hour in the cold room, and were dried overnight at room temperature. Then, cells were incubated with SRB for 15 min, washed twice with 1% acetic acid, and air dried for at least 1 hour. Finally, the protein-bound dye was dissolved in a 10 mM Tris, pH 8.8, solution and read using the plate reader at 540-nm.

[2] = system: MCF7 cells; experiment: Cell proliferation, xCELLigence RTCA; format: cell-based, human; details: MCF7 2D-monolayers, relative to control (no treatment)
Procedure: Cell Proliferation: Briefly, MCF7 cells or hTERT-BJ1 fibroblasts were seeded in each well (10,000 cells/well) and employed to assess the efficacy of Doxycycline and Doxy-Myr, using RTCA (real-time cell analysis), via the measurement of cell-induced electrical impedance plate (Acea Biosciences Inc.). This approach allows the quantification of the onset and kinetics of the cellular response. Experiments were repeated several times independently, using quadruplicate samples for each condition.

[3] = system: normal human fibroblasts (hTERT-BJ1); experiment: Cell viability (SRB) assay, normal fibroblasts 2D-monolayers; format: cell-based; details: hTERT-BJ1 2D-monolayers, 3 days, 5 to 20 μM
Procedure: as §1

[4] = system: Staphylococcus aureus (ATCC 29213); experiment: Bacterial growth assay (broth microdilution, resazurin); format: cell-based; details: S. aureus, Gram-positive, 100-0.78 μM
Procedure: (§2) Bacterial Growth Assays: Briefly, antibiotic activity was assessed using standard assay systems. The antibiotic activity of Doxycycline analogues was determined experimentally, using Resazurin (R7017; Sigma-Aldrich, Inc.) as a probe, in a 96-well plate format, using standard strains of E. coli and S. aureus. The minimum inhibitory concentration (MIC) for the studied compounds was determined using the broth microdilution method, the reference susceptibility test for rapidly growing aerobic or facultative microorganism. The assays were performed according to the Clinical and Laboratory Standards Institute (CLSI) guidelines. The test compounds and positive control (doxycycline, Sigma Aldrich #D1822) stock solutions were prepared at 25 mM in DMSO and serially diluted (2-fold dilution from 200-1.56 tiM) in cation adjusted Mueller Hinton Broth (MHB, Sigma Aldrich #90922) in 96 well transparent plates (VWR #734-2781) into a final volume of 50 μL/well. Staphylococcus aureus (ATCC 29213) and E. coli (ATCC 25922) cultures were grown overnight at 37° C. in Mueller Hinton Agar (MHA, Sigma Aldrich #70191). A single colony of each strain was then grown overnight at 37° C. in MHB until OD600˜0.6-0.8 and further diluted into MHB to a concentration of […] colony forming units (CFU)/mL, which was equivalent to an OD600˜0.01. Then, 50 μL of the diluted inoculums was transferred to the wells of the previously prepared 96-well plates containing the test compounds, negative control (1% DMSO in MHB) and positive control (doxycycline). Final wells volume was 100 μL, final concentrations for the testing compounds were between 100-0.78 μM and final microorganism concentration was 5×10^5 CFU/mL. Subsequently, 10 uL of one negative control well was plated in a petri dish containing MHA to check CFU and the purity of the cultures. The plates were incubated at 37° C. for 24 h after which 20 tit of resazurin solution (0.2 mg/mL) was added to the wells followed by 1 h30 min incubation at 37° C. The OD570 and OD600 were measured in a microplate reader (BMG FLUOstar Omega). […] MIC values were determined by three independent experiments.

[5] = system: chick embryo; experiment: CAM assay, embryo tolerability / toxicity; format: in vivo; details: for Dead / Alive: number of embryos
Procedure: a) Preparation of Chicken Embryos. […] At that moment (E9), the chorioallantoic membrane (CAM) was dropped down by drilling a small hole through the eggshell into the air sac, and a 1 cm^2 window was cut in the eggshell above the CAM.
e) Embryo Tolerability Assay. Before each administration, the treatment tolerability was evaluated by scoring the number of dead embryos.

[6] = system: CSC burden in early breast cancer patients; details: oral 200 mg/day for 14 days; cited from earlier work
[7] = system: E. coli (ATCC 25922); experiment: Bacterial growth assay (broth microdilution, resazurin); format: cell-based, Escherichia coli; details: Gram-negative, 100-0.78 μM
Procedure: as §2

[8] = system: MCF7 CSCs; experiment: 3D-mammosphere formation assay; format: cell-based, human; details: for pIC50: 5 days, non-adherent conditions, read-out: IC50 for inhibiting 3D anchorage-independent propagation (mammosphere formation)
Procedure: For the 3D-Mammosphere Assay, a single cell suspension of MCF7 cells was prepared using enzymatic (lx Trypsin-EDTA, Sigma Aldrich) and manual disaggregation (25-gauge needle). Cells were then plated at a density of 500 cells/cm^2 in mammosphere medium (DMEM-F12/B27/EGF (20-ng/ml)/PenStrep) in non-adherent conditions, in culture dishes coated with (2-hydroxyethylmethacrylate) (poly-HEMA, Sigma). Cells were grown for 5 days and maintained in a humidified incubator at 37° C. at an atmospheric pressure in 5% (v/v) carbon dioxide/air. After 5 days in culture, spheres>50 μm were counted using an eye-piece graticule, and the percentage of cells plated which formed spheres was calculated and is referred to as percent mammosphere formation, normalized to vehicle-alone treated controls. Mammosphere assays were performed in triplicate and repeated three times independently.

[9] = system: MCF7 cells; experiment: Cell cycle analysis (FACS); format: cell-based, human; details: MCF7 2D-monolayers, 72 hours, 10 μM
Procedure: Cell Cycle Analysis: Performed on MCF7 cells treated with Doxycycline, Doxy-Myr or vehicle-alone. Briefly, after trypsinization, the re-suspended cells were incubated with 10 ng/ml of Hoechst solution (Thermo Fisher Scientific) for 40 min at 37° C. under dark conditions. Following a 40 min period, the cells were washed and re-suspended in PBS Ca/Mg for acquisition on the Attune NxT flow cytometer (Thermo Scientific). 10,000 events per condition were analyzed. Gated cells were manually-categorized into cell-cycle stages.

SMILES | effect on cell viability [1] | effect on proliferation [2] | effect on cell viability [3] | antibiotic activity (growth inhibition) [4] | % Dead ([5]; 0.125 mM) | Dead ([5]; 0.125 mM) | % Dead ([5]; 0.250 mM) | Dead ([5]; 0.250 mM) | antibiotic activity (growth inhibition) [7] | pIC50 ([8]; Homo sapiens, MCF7, 120 h) | also measured
C[C@H]1c2cccc(O)c2C(=O)C2=C(O)[C@]3(O)C(=O)C(C(N)=O)=C(O)[C@@H](N(C)C)C3[C@@H](O)C21 (stereo partly drawn) [Doxycycline, (4S,5 S,6R,12aS)-4-(dimethylamino)-3,5,10,12,12a-pentahydroxy-6-methyl-1,11-dioxo-4a,5,5 a,6-tetrahydro-4H-tetracene-2-carboxamide] | no appreciable effects on cell viability | did not inhibit the proliferation | no appreciable effects on cell viability | potently and effectively inhibits the growth | 15.38% | 2 | 23.08% | 3 | potently and effectively inhibits the growth |  | embryo toxicity ([5]; in vivo): little-to-no embryo toxicity; positive response rate [6]: ~90%
CCCCCCCCCCCCCCCC(=O)Nc1ccc2c(c1O)C(=O)C1=C(O)[C@]3(O)C(=O)C(C(N)=O)=C(O)[C@@H](N(C)C)C3[C@@H](O)C1[C@H]2C (stereo partly drawn) [Doxy-Pal, (4S,5S,6R,12 aS)-4-(dimethylamino)-9-(hexadecanoylamino)-3,5,10,12,12a-pentahydroxy-6-methyl-1,11-dioxo-4a,5,5 a,6-tetrahydro-4H-tetracene-2-carboxamide] |  |  |  | did not show any antibiotic activity |  |  |  |  | did not show any antibiotic activity | 4.98 | 
CCCCCCCCCCCCCC(=O)Nc1ccc2c(c1O)C(=O)C1=C(O)[C@]3(O)C(=O)C(C(N)=O)=C(O)[C@@H](N(C)C)C3[C@@H](O)C1[C@H]2C (stereo partly drawn) [Doxy-Myr, (4S,5S,6R,12aS)-4-(dimethylamino)-3,5,10,12,12a-pentahydroxy-6-methyl-1,11-dioxo-9-(tetradecanoylamino)-4a,5,5a,6-tetrahydro-4H-tetracene-2-carboxamide] | no appreciable effects on cell viability | did not inhibit the proliferation | no appreciable effects on cell viability | did not show any antibiotic activity | 21.43% | 3 | 7.69% | 1 | did not show any antibiotic activity |  | effect on cell cycle progression [9]: did not have any significant effects on reducing cell cycle progression; pIC50 [8]: 5.46; % Alive ([5]; 0.125 mM): 78.57%; Alive ([5]; 0.125 mM): 11; % Alive ([5]; 0.250 mM): 92.31%; Alive ([5]; 0.250 mM): 12; embryo toxicity ([5]; CAM assay): little-to-no embryo toxicity
C[C@H]1c2ccc(NC(=O)CCCCC[P+](c3ccccc3)(c3ccccc3)c3ccccc3)c(O)c2C(=O)C2=C(O)[C@]3(O)C(=O)C(C(N)=O)=C(O)[C@@H](N(C)C)C3[C@@H](O)C21.C[C@H]1c2ccc(NC(=O)CCCCC[P+](c3ccccc3)(c3ccccc3)c3ccccc3)c(O)c2C(=O)C2=C(O)[C@]3(O)C(=O)C(C(N)=O)=C(O)[C@@H](N(C)C)C3[C@@H](O)C21.O=C([O-])C(=O)[O-] (stereo partly shown) [Doxy-TPP] |  |  |  |  |  |  |  |  |  |  | inhibitory potency compared with Doxycycline [8]: not more potent that Doxycycline
CCCCCCCCCCCC(=O)Nc1ccc2c(c1O)C(=O)C1=C(O)[C@]3(O)C(=O)C(C(N)=O)=C(O)[C@@H](N(C)C)C3[C@@H](O)C1[C@H]2C (stereo partly drawn) [Doxy-Laur, (4S,5S,6R,12aS)-4-(dimethylamino)-9-(dodecanoylamino)-3,5,10,12,12a-pentahydroxy-6-methyl-1,11-dioxo-4a,5,5a,6-tetrahydro-4H-tetracene-2-carboxamide] |  |  |  | did not show any antibiotic activity |  |  |  |  | did not show any antibiotic activity | 5.24 | 
